Laboratory results as given in PubChem BioAssay AID330 (DTP/NCI, 2004).
Where “and” joins values, the source holds several entries; their conditions need not be identical. Equal values may be shown once. Toxic doses and inconclusive results are not listed. Peptide text beside a SMILES is read from it. * marks the point of attachment. Cbz = O=C(OCc1ccccc1)*; Bn = c1ccc(C*)cc1

Test system: P388 leukemia ip, CD2F1 mice, survival T/C
Assay: NCI In Vivo Anticancer Drug Screen. Data for tumor model P388 Leukemia (intraperitoneal) in CD2F1 (CDF1) mice
Conditions: endpoint: median survival time, higher = longer survival
In short: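 Mice carrying the transplanted tumor received test compound or vehicle. Survival was recorded in each group, and the value is the treated-group measurement divided by that of the vehicle-treated control group.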

[1] = dose: 50.0 mg/kg/injection, schedule: Q01DX005 (ip), vehicle: Klucel (hydroxypropylcellulose) (HPC)
[2] = dose: 100.0 mg/kg/injection, schedule: Q01DX005 (ip), vehicle: Klucel (hydroxypropylcellulose) (HPC)
[3] = dose: 200.0 mg/kg/injection, schedule: Q01DX005 (ip), vehicle: Klucel (hydroxypropylcellulose) (HPC)

Nc1nc(=S)c2[nH]cnc2[nH]1
T/C (dose: 0.25 mg/kg/injection, schedule: Q01DX009 (ip), vehicle: acid diluted with saline): 114 % of control
T/C (dose: 0.25 mg/kg/injection, schedule: Q01DX009 (ip), vehicle: alkali diluted with saline): 120 % of control
T/C (dose: 0.38 mg/kg/injection, schedule: Q01DX005 (ip), vehicle: alkali diluted with saline): 108 % of control
T/C (dose: 0.5 mg/kg/injection, schedule: Q01DX009 (ip), vehicle: acid diluted with saline): 106 % of control
T/C (dose: 0.5 mg/kg/injection, schedule: Q01DX009 (ip), vehicle: alkali diluted with saline): 119 % of control
T/C (dose: 0.75 mg/kg/injection, schedule: Q01DX005 (ip), vehicle: alkali diluted with saline): 115 % of control
T/C (dose: 1.0 mg/kg/injection, schedule: Q01DX009 (ip), vehicle: acid diluted with saline): 112 % of control
T/C (dose: 1.12 mg/kg/injection, schedule: Q04DX003 (ip), vehicle: acid diluted with saline): 109 % of control
T/C (dose: 1.44 mg/kg/injection, schedule: Q01DX009 (ip), vehicle: acid diluted with saline): 155 % of control
T/C (dose: 1.5 mg/kg/injection, schedule: Q01DX005 (ip), vehicle: alkali diluted with saline): 123 % of control
T/C (dose: 1.5 mg/kg/injection, schedule: Q01DX009 (ip), vehicle: acid diluted with saline): 154 % of control
T/C (dose: 1.5 mg/kg/injection, schedule: Q01DX009 (ip), vehicle: alkali diluted with saline): 151 % of control
T/C (dose: 2.0 mg/kg/injection, schedule: Q01DX005 (ip), vehicle: alkali diluted with saline): 157 % of control
T/C (dose: 2.0 mg/kg/injection, schedule: Q01DX009 (ip), vehicle: acid diluted with saline): 106 % of control
T/C (dose: 2.0 mg/kg/injection, schedule: Q04DX003 (ip), vehicle: alkali diluted with saline): 119 % of control
T/C (dose: 2.25 mg/kg/injection, schedule: Q04DX003 (ip), vehicle: acid diluted with saline): 119 % of control
T/C (dose: 2.4 mg/kg/injection, schedule: Q01DX009 (ip), vehicle: acid diluted with saline): 154 % of control and 170 % of control
T/C (dose: 2.5 mg/kg/injection, schedule: Q04DX003 (ip), vehicle: alkali diluted with saline): 116 % of control
T/C (dose: 3.24 mg/kg/injection, schedule: Q04DX003 (ip), vehicle: acid diluted with saline): 117 % of control
T/C (dose: 4.5 mg/kg/injection, schedule: Q01DX009 (ip), vehicle: saline): 122 % of control
T/C (dose: 4.5 mg/kg/injection, schedule: Q04DX003 (ip), vehicle: acid diluted with saline): 119 % of control
T/C (dose: 5.0 mg/kg/injection, schedule: Q04DX003 (ip), vehicle: alkali diluted with saline): 108 % of control
T/C (dose: 6.0 mg/kg/injection, schedule: Q01DX005 (ip), vehicle: alkali diluted with saline): 116 % of control
T/C (dose: 6.0 mg/kg/injection, schedule: Q01DX009 (ip), vehicle: acid diluted with saline): 105 % of control
T/C (dose: 12.0 mg/kg/injection, schedule: Q01DX005 (ip), vehicle: alkali diluted with saline): 113 % of control
T/C (dose: 20.0 mg/kg/injection, schedule: Q04DX003 (ip), vehicle: alkali diluted with saline): 120 % of control

CC1=CC(c2ccccc2)=CS(=O)(N(C)C)=C1 (stereo not drawn)
T/C (dose: 60.0 mg/kg/injection, schedule: Q01DX005 (ip), vehicle: saline): 100 % of control
T/C (dose: 120.0 mg/kg/injection, schedule: Q01DX005 (ip), vehicle: saline): 104 % of control
T/C (dose: 240.0 mg/kg/injection, schedule: Q01DX005 (ip), vehicle: saline): 104 % of control

CN(C)S(=O)(=O)c1cccc(N)c1
T/C (dose: 25.0 mg/kg/injection, schedule: Q04DX003 (ip), vehicle: saline with Tween-80): 93 % of control
T/C (dose: 50.0 mg/kg/injection, schedule: Q04DX003 (ip), vehicle: saline with Tween-80): 95 % of control
T/C (dose: 100.0 mg/kg/injection, schedule: Q04DX003 (ip), vehicle: saline with Tween-80): 100 % of control
T/C (dose: 200.0 mg/kg/injection, schedule: Q04DX003 (ip), vehicle: saline with Tween-80): 94 % of control

C=Cc1nc(N)nc(-c2ccc(C)cc2)n1
T/C [1]: 110 % of control
T/C [2]: 111 % of control
T/C [3]: 118 % of control

CC(=O)Nc1ccc(Cl)cc1C(Cl)c1ccccc1 (stereo not drawn)
T/C (dose: 12.5 mg/kg/injection, schedule: Q01DX005 (ip), vehicle: Klucel (hydroxypropylcellulose) (HPC)): 109 % of control
T/C (dose: 25.0 mg/kg/injection, schedule: Q01DX005 (ip), vehicle: Klucel (hydroxypropylcellulose) (HPC)): 118 % of control
T/C [1]: 123 % of control and 124 % of control
T/C [2]: 115 % of control

CN1CCc2sccc2C(c2ccccc2)O1 (stereo not drawn)
T/C [1]: 112 % of control
T/C [2]: 104 % of control
T/C [3]: 113 % of control

CC(NC(=O)C(C)Oc1ccc(Cl)cc1Cl)C(=O)O (stereo not drawn)
T/C (dose: 50.0 mg/kg/injection, schedule: Q01DX005 (ip), vehicle: saline with Tween-80): 101 % of control
T/C (dose: 100.0 mg/kg/injection, schedule: Q01DX005 (ip), vehicle: saline with Tween-80): 99 % of control
T/C (dose: 200.0 mg/kg/injection, schedule: Q01DX005 (ip), vehicle: saline with Tween-80): 100 % of control

CC(C)C(NC(=O)C(CSCc1ccccc1)NC(=O)OCc1ccccc1)C(=O)O (stereo not drawn) (Cbz-Cys(Bn)-Val-OH; configuration not given here)
T/C [1]: 97 % of control
T/C [2]: 88 % of control
